What was measured:
[1] = test system: Hep3B cells; experiment: FXR siRNA studies in Hep3B cells; format: cell-based, Human; conditions: Compound A 1 μM, 50 ng/ml IL-6
Procedure: FXR siRNA studies were performed in Hep3B cells. […] The cells were transfected with FXR siRNA or control siRNA, stimulated with 50 ng/ml IL-6, and treated with control (DMSO) or Compound A (1 μM). CRP concentrations in the conditional media were measured by ELISA. (*P<0.01, Control siRNA/DMSO vs. Control siRNA/Compound A).
The Hep3B cells were transfected with FXR siRNA or control siRNA, stimulated with 50 ng/ml IL-6, and treated with control (DMSO) or Compound A (1 μM). […] (*P<0.001, Control siRNA vs. FXR siRNA).

[2] = test system: FXRKO mice challenged with LPS; experiment: LPS-induced liver acute phase response, FXR deficient mice; format: in vivo; conditions: 30 mg/kg for 4 days; LPS treated FXRKO mice
Procedure: (§1) Wildtype and FXR deficient mice were treated with Compound A (30 mg/kg) or vehicle for 4 days. On day 4, mice were challenged with 2.5 micrograms of lipopolysaccharide (LPS) to induce an acute phase response. After 4 hours, the mice were euthanized and their livers were harvested for analysis of expression of various factors. […] Compound A attenuated the LPS-induced murine liver acute phase response. […] (*P<0.01, WT/LPS/V vs. WT/LPS/Compound A).

[3] = test system: mice fed a Paigen diet; experiment: Gallbladder bile lipid composition, Paigen diet with treatment; format: in vivo
Procedure: (§2) Disrupted cholesterol, phospholipid, and bile salt homeostasis contributes to the formation of gallstones. Gallbladder bile lipid composition was quantitated from mice treated as follows. A group of mice (CHOW) was fed a standard chow diet. Another group of mice was fed a Paigen diet and administered vehicle (Paigen/Vehicle) or 30 mg/kg Compound A (Paigen/Compound A) orally once a day for 4 weeks. To preform gallstones, mice were fed initially a Paigen diet for 4 weeks and subsequently fed a standard chow diet and administered vehicle (Preformed/Vehicle) or 30 mg/kg Compound A (Preformed/Compound A) orally once a day for 4 weeks. […] Data are presented as the mean±SE.

[4] = test system: C57BL/6 mice with preformed gallstones; experiment: Gallstone dissolution in mice with preformed gallstones; format: in vivo; conditions: Paigen diet 4 weeks, then 30 mg/kg orally once a day on chow diet for 4 weeks
Procedure: To study gallstone dissolution, gallbladders were harvested from mice treated as follows. C57BL/6 mice were fed a Paigen diet for 4 weeks to initiate gallstone formation. Subsequently these mice were administered vehicle or 30 mg/kg Compound A orally once a day and fed a standard chow diet for 4 weeks to study the effect of Compound A on preformed gallstones.

[5] = test system: FXR deficient (FXRKO) mice fed a MCD diet; experiment: MCD diet, FXR deficient mice (WT vs FXRKO study); format: in vivo; conditions: 30 mg/kg orally once a day for 4 weeks
Procedure: Mice were fed a standard chow diet or a MCD diet and treated with either vehicle or 30 mg/kg Compound A orally once a day for 4 weeks.

[6] = test system: C57BL/6 mice fed a methionine/choline deficient (MCD) diet; experiment: MCD diet fed mice: serum, liver gene expression and liver histology; format: in vivo
Procedure: Male C57BL/6 mice were fed a standard chow diet or a methionine/choline deficient (MCD) diet (MCD diet; TD 90262, Harlan Teklad). MCD diet fed mice develop fibrosis and NAFLD including steatosis and NASH due to impaired mitochondrial β-oxidation and reduced hepatic triglyceride secretion.
Mice were administered vehicle or 30 mg/kg Compound A orally once a day for 4 weeks. Three hours after the final treatment, mice were euthanized, and blood and liver were collected for analyses.
FIGS. 11A and 11B show the expression levels of VCAM-1 and MCP-1, respectively. Real-time RT PCR analysis of liver RNA was performed. Expression levels were normalized to GAPDH, and the mean level of expression of each gene in vehicle treated mice fed a standard chow diet was defined as 1.0. 7 mice were tested in each group. Data are presented as the mean±SE.
FIGS. 13, 14, and 15 show representative liver sections from mice fed a standard chow diet, vehicle treated mice fed a MCD diet, and Compound A (30 mg/kg orally once a day) treated mice fed a MCD diet for 4 weeks.
Male C57BL/6 mice were fed a standard chow diet or a MCD diet and treated with either vehicle or 30 mg/kg Compound A orally once a day for 4 weeks. Three hours after the final treatment, mice were euthanized and liver expression of CYP2E1, a reactive oxygen species (ROS) generating microsomal enzyme, was analyzed.

[7] = test system: Wildtype mice challenged with LPS; experiment: LPS-induced liver acute phase response, wildtype mice; format: in vivo; conditions: 30 mg/kg for 4 days; 2.5 micrograms LPS, 4 hours; P<0.01
Procedure: as §1

[8] = test system: mice with preformed gallstones; experiment: Gallbladder bile lipid composition, preformed gallstones; format: in vivo
Procedure: as §2

[9] = test system: Hep3B cells; experiment: IL-6 induced CRP gene expression in Hep3B cells; format: cell-based, Human; conditions: Compound A 1 μM; IL-6 10 ng/ml or 50 ng/ml; P<0.001 vs DMSO
Procedure: Human hepatoma cells, Hep3B secrete the acute phase protein, C-reactive protein (CRP) upon IL-6 treatment. Cells were cotreated with Compound A to determine if Compound A could decrease IL-6 induced CRP secretion.
FIGS. 26A and 26B show the CRP gene expression level in Hep3B cells stimulated with IL-6 (10 ng/ml or 50 ng/ml), and treated with vehicle (DMSO) or Compound A (1 μM). […] (*P<0.001, Hep3B/DMSO vs. Hep3B/Compound A).

[10] = Paigen/Compound A vs Paigen/Vehicle
[11] = Paigen/Compound A, 30 mg/kg orally once a day for 4 weeks, mean±SE
[12] = 30 mg/kg orally once a day for 4 weeks, MCD diet
[13] = 30 mg/kg orally once a day for 4 weeks, MCD diet, RT PCR, p<0.001
[14] = 30 mg/kg orally once a day for 4 weeks, p<0.001
[15] = 30 mg/kg orally once a day, MCD diet for 4 weeks
[16] = Preformed/Compound A vs Preformed/Vehicle
[17] = Preformed/Compound A, Paigen diet 4 weeks, then chow and 30 mg/kg orally once a day for 4 weeks, mean±SE

CC(C)OC(=O)C1=CN(C(=O)c2ccc(F)c(F)c2)CC(C)(C)c2c1[nH]c1ccccc21 [Compound A, isopropyl 3-(3,4-difluorobenzoyl)-1,1-dimethyl-1,2,3,6-tetrahydroazepino[4,5-b]indole-5-carboxylate]
CRP inhibition at the mRNA level in cells transfected with FXR siRNA [1]: suppressed | inhibitory effect on CRP secretion in cells transfected with FXR siRNA ([1]; ELISA): FXR siRNA blocked Compound A's inhibitory effect | liver SAA-3 levels [2]: not significantly altered | liver SAP levels [2]: not significantly altered | liver VCAM-1 levels [2]: not significantly altered | bile cholesterol level increase induced by the Paigen diet, vs vehicle [3, 10]: attenuated the increases | bile phospholipid level increase induced by the Paigen diet, vs vehicle [3, 10]: attenuated the increases | BS (bile salt) in gallbladder bile [3, 11]: 110.42 ± 24.79 mM | CE (cholesterol) in gallbladder bile [3, 11]: 7.70 ± 0.28 mM | PL (phospholipids) in gallbladder bile [3, 11]: 20.19 ± 1.00 mM | Gallstone dissolution (gallstone incidence, mice with gallstones/mice) ([4]; vehicle 13/26): 5/20 | gallstone incidence in mice with preformed gallstones ([4]; vehicle 50%): 25% | effect on liver VCAM-1 levels, FXR dependence [5]: mediated by FXR | hepatic protective effect (serum ALT), FXR dependence [5]: mediated by FXR | reduction of liver Col1a2, FXR dependence [5]: mediated by FXR | reduction of liver TIMP-1, FXR dependence [5]: mediated by FXR | liver FXR gene expression level [6, 12]: did not normalize | liver FXR target gene expression (SHP, BSEP) [6, 12]: normalized | liver MCP-1 expression [6, 13]: significantly inhibited | liver VCAM-1 expression [6, 13]: significantly inhibited | serum aspartate aminotransferase (AST) activity level ([6]; 30 mg/kg orally once a day for 4 weeks, MCD diet, mean±SE, vehicle 491±38.9 U/L, p<0.0001): 268±77 U/L | serum mKC level vs vehicle ([6]; 30 mg/kg orally once a day for 4 weeks, MCD diet, p<0.05): reduced | liver CYP2E1 expression levels ([6]; 30 mg/kg orally once a day for 4 weeks, chow or MCD diet (independent of MCD diet), p<0.001): significant inhibition | liver MMP-9 expression level (MCD diet induction) [6, 14]: inhibition of MCD diet induction | liver MMP-14 expression level (MCD diet induction) [6, 14]: inhibition of MCD diet induction | liver TIMP-1 expression level (MCD diet induction) [6, 14]: inhibition of MCD diet induction | inflammatory cell infiltration and fibrosis in liver (Trichrome staining) [6, 15]: more severe in the livers of vehicle treated compared to Compound A treated mice | inflammatory cell infiltration and portal inflammation in liver (H&E staining) [6, 15]: more severe in the livers of vehicle treated compared to Compound A treated mice | liver function, inflammation and fibrosis (histological analyses of liver sections) [6, 15]: preserved liver function, and reduced liver inflammation and fibrosis | neutral lipid accumulation in the liver (Oil Red O staining) [6, 15]: no effect | reduction of liver SAA-3 levels vs vehicle [7]: 35% | reduction of liver SAP levels vs vehicle [7]: 40% | reduction of liver VCAM-1 levels vs vehicle [7]: 40% | bile cholesterol level vs vehicle [8, 16]: higher | bile phospholipid level vs vehicle [8, 16]: higher | bile salt level vs vehicle [8, 16]: Lower | BS (bile salt) in gallbladder bile [8, 17]: 120.06 ± 14.28 mM | CE (cholesterol) in gallbladder bile [8, 17]: 7.54 ± 0.86 mM | PL (phospholipids) in gallbladder bile [8, 17]: 27.54 ± 2.14 mM | bile salt/phospholipid ratio vs vehicle ([8]; mice with preformed gallstones): significantly decreased | IL-6 induced CRP mRNA levels [9]: reduced

Source: patent US20090163474A1, “FXR Agonists for the Treatment of Nonalcoholic Fatty Liver and Cholesterol Gallstone Diseases” (Wyeth, priority 2007, published 2009)
